Test results as given in ChEMBL document CHEMBL3611992, “Synthesis and Structure-Activity Relationships of Quaternary Coptisine Derivatives as Potential Anti-ulcerative Colitis Agents” (J Med Chem, 2015).
Activity calls are given as the source filed them. No cut-off for these calls is given here.

Experiments:
[1] = molecular target: T1, X-box-binding protein 1 (Homo sapiens) (UniProt P17861); experiment: Transactivation of XBP1 (unknown origin) transfected in rat IEC-6 cells at 10 uM after 48 hrs by dual luciferase reporter gene assay; assay type: cell-based
T1 sequence (whole entry): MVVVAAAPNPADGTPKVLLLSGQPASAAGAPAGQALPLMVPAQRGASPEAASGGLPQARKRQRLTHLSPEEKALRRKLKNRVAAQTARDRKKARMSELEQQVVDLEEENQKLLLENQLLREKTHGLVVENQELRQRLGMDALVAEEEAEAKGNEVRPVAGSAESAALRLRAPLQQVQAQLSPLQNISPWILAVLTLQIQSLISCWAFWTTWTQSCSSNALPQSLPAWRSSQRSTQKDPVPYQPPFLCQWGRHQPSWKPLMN

[2] = molecular target: T1, X-box-binding protein 1 (Homo sapiens); experiment: Transactivation of XBP1 (unknown origin) transfected in rat IEC-6 cells at 10 uM after 48 hrs by dual luciferase reporter gene assay relative to con 2; assay type: cell-based
Mus musculus [3] = experiment: Toxicity in DSS-induced acute C57Bl/6J mouse ulcerative colitis model assessed as change in body weight at 200 mg/kg, po qd (reference value: -15.3%); assay type: organism-based; details: in vivo
Mus musculus [4] = experiment: Toxicity in DSS-induced acute C57Bl/6J mouse ulcerative colitis model assessed as change in body weight at 100 mg/kg, po qd (reference value: -15.3%); assay type: organism-based; details: in vivo
Mus musculus [5] = experiment: Toxicity in DSS-induced acute C57Bl/6J mouse ulcerative colitis model assessed as change in body weight at 50 mg/kg, po qd (reference value: -15.3%); assay type: organism-based; details: in vivo
Mus musculus [6] = experiment: Anti-ulcerative colitis activity in DSS-induced acute C57Bl/6J mouse ulcerative colitis model assessed as inhibition rate of disease activity index at 200 mg/kg, po qd measured on day 8 relative to control; assay type: functional; details: 192 h
Mus musculus [7] = experiment: Anti-ulcerative colitis activity in DSS-induced acute C57Bl/6J mouse ulcerative colitis model assessed as inhibition rate of disease activity index at 100 mg/kg, po qd measured on day 8 relative to control; assay type: functional; details: 192 h
Mus musculus [8] = experiment: Anti-ulcerative colitis activity in DSS-induced acute C57Bl/6J mouse ulcerative colitis model assessed as inhibition rate of disease activity index at 50 mg/kg, po qd measured on day 8 relative to control; assay type: functional; details: 192 h
Mus musculus [9] = experiment: Anti-ulcerative colitis activity in po dosed DSS-induced acute C57Bl/6J mouse ulcerative colitis model assessed as inhibition rate of disease activity index administered as qd measured on day 8; assay type: functional, organism-based
Mus musculus [10] = experiment: Anti-ulcerative colitis activity in DSS-induced acute C57Bl/6J mouse ulcerative colitis model assessed as improvement in colon contracture at 200 mg/kg, po qd measured on day 8 (reference value: 41.8%); assay type: functional
Mus musculus [11] = experiment: Anti-ulcerative colitis activity in DSS-induced acute C57Bl/6J mouse ulcerative colitis model assessed as improvement in colon contracture at 100 mg/kg, po qd measured on day 8 (reference value: 41.8%); assay type: functional
Mus musculus [12] = experiment: Anti-ulcerative colitis activity in DSS-induced acute C57Bl/6J mouse ulcerative colitis model assessed as improvement in colon contracture at 50 mg/kg, po qd measured on day 8 (reference value: 41.8%); assay type: functional
Mus musculus [13] = organism: Mus musculus; experiment: Anti-ulcerative colitis activity in DSS-induced acute C57Bl/6J mouse ulcerative colitis model; assay type: functional, organism-based
[14] = Cytotoxicity against rat IEC-6 cells assessed as cell survival at 10 uM after 24 to 72 hrs by MTT assay; assay type: cell-based; details: iec-6, 10 µM
Mus musculus [15] = experiment: Toxicity in DSS-induced acute C57Bl/6J mouse ulcerative colitis model assessed as change in body weight at 300 mg/kg, po qd (reference value: -15.3%); assay type: organism-based; details: in vivo
Mus musculus [16] = experiment: Anti-ulcerative colitis activity in DSS-induced acute C57Bl/6J mouse ulcerative colitis model assessed as inhibition rate of disease activity index at 300 mg/kg, po qd measured on day 8 relative to control; assay type: functional; details: 192 h
Mus musculus [17] = experiment: Anti-ulcerative colitis activity in DSS-induced acute C57Bl/6J mouse ulcerative colitis model assessed as colon macroscopic damage index at 300 mg/kg, po qd measured on day 8 (reference value: 5.69 +/- 1.12); assay type: functional
Mus musculus [18] = experiment: Anti-ulcerative colitis activity in DSS-induced acute C57Bl/6J mouse ulcerative colitis model assessed as improvement in colon contracture at 300 mg/kg, po qd measured on day 8 (reference value: 41.8%); assay type: functional
Mus musculus [19] = experiment: Anti-ulcerative colitis activity in DSS-induced acute C57Bl/6J mouse ulcerative colitis model assessed as improvement in number of visible colitis lesions at 300 mg/kg, po qd measured on day 8; assay type: functional, organism-based
Mus musculus [20] = experiment: Anti-ulcerative colitis activity in DSS-induced acute C57Bl/6J mouse ulcerative colitis model assessed as recovery of each muscle layer structure at 300 mg/kg, po qd measured on day 8; assay type: functional, organism-based
Mus musculus [21] = experiment: Anti-ulcerative colitis activity in DSS-induced acute C57Bl/6J mouse ulcerative colitis model assessed as colon macroscopic damage index at 200 mg/kg, po qd measured on day 8 (reference value: 5.69 +/- 1.12); assay type: functional
Mus musculus [22] = experiment: Anti-ulcerative colitis activity in DSS-induced acute C57Bl/6J mouse ulcerative colitis model assessed as colon macroscopic damage index at 100 mg/kg, po qd measured on day 8 (reference value: 5.69 +/- 1.12); assay type: functional
Mus musculus [23] = experiment: Anti-ulcerative colitis activity in DSS-induced acute C57Bl/6J mouse ulcerative colitis model assessed as colon macroscopic damage index at 50 mg/kg, po qd measured on day 8 (reference value: 5.69 +/- 1.12); assay type: functional
Mus musculus [24] = experiment: Anti-ulcerative colitis activity in po dosed DSS-induced acute C57Bl/6J mouse ulcerative colitis model assessed as decrease in colon macroscopic damage index administered as qd measured on day 8; assay type: functional, organism-based
Mus musculus [25] = experiment: Anti-ulcerative colitis activity in DSS-induced acute C57Bl/6J mouse ulcerative colitis model assessed as improvement in lesions of inflammatory bowel disease at 200 mg/kg, po qd measured on day 8; assay type: functional, organism-based
Mus musculus [26] = experiment: Anti-ulcerative colitis activity in DSS-induced acute C57Bl/6J mouse ulcerative colitis model assessed as appearance of regularly arranged IEC cells at 200 mg/kg, po qd measured on day 8; assay type: functional, organism-based
Mus musculus [27] = experiment: Anti-ulcerative colitis activity in DSS-induced acute C57Bl/6J mouse ulcerative colitis model assessed as decrease in inflammatory lesions in colon tissue at 50 to 100 mg/kg, po qd measured on day 8; assay type: functional, organism-based
Mus musculus [28] = experiment: Anti-ulcerative colitis activity in DSS-induced acute C57Bl/6J mouse ulcerative colitis model assessed as restoration of polarity arrangement of IEC cells to its normal physiological state at 200 mg/kg, po qd measured on day 8; assay type: functional, organism-based
Mus musculus [29] = organism: Mus musculus; experiment: Potency index, ratio of compound activity to SASP activity for inhibition rate of disease activity index in DSS-induced acute C57Bl/6J mouse ulcerative colitis model; assay type: functional
Mus musculus [30] = organism: Mus musculus; experiment: Toxicity in C57Bl/6J mouse; assay type: organism-based; details: in vivo

SMILES | Activity [1] | Activity (Mus musculus [13]) | further results
CC(=O)CC1c2c(ccc3c2OCO3)C=C2c3cc4c(cc3CCN21)OCO4 (racemic) | Active | – | fold change (FC) [2]: 2.06; Activity (Mus musculus [3]): 3.33%; Activity (Mus musculus [4]): 3.26%; Activity (Mus musculus [5]): -12.9%; inhibition in vivo at 200 mg/kg (Mus musculus [6]): 63.8%; inhibition in vivo at 100 mg/kg (Mus musculus [7]): 60.3%; inhibition in vivo at 50 mg/kg (Mus musculus [8]): 36.4%; inhibition (Mus musculus [9]): Dose-dependent effect; Activity (Mus musculus [10]): 20.4%; Activity (Mus musculus [11]): 28.8%; Activity (Mus musculus [12]): 38.3%
COc1ccc(CC2=C3c4cc5c(cc4CCN3Cc3c2ccc2c3OCO2)OCO5)cc1 | Active | – | –
c1cc2c(c3c1CC1c4cc5c(cc4CCN1C3)OCO5)OCO2 (stereo not given) | – | inactive | –
FC(F)(F)c1cccc(CC2=C3c4cc5c(cc4CCN3Cc3c2ccc2c3OCO2)OCO5)c1 | Active | – | –
C=C(C(=O)c1ccc(OC)cc1)c1c2c3c(ccc2c(C)c2[n+]1CCc1cc4c(cc1-2)OCO4)OCO3 | inactive | – | –
Cc1ccc(Cc2c3[n+](cc4c5c(ccc24)OCO5)CCc2cc4c(cc2-3)OCO4)cc1.[Cl-] | – | – | Activity [14]: Toxic
COc1ccc(Cc2c3[n+](cc4c5c(ccc24)OCO5)CCc2cc4c(cc2-3)OCO4)cc1 | Active | inactive | –
O=C(O)c1cc(/N=N/c2ccc(S(=O)(=O)Nc3ccccn3)cc2)ccc1O [SULFASALAZINE] | – | – | Activity (Mus musculus [15]): -8.42%; inhibition in vivo at 300 mg/kg (Mus musculus [16]): 30.6%; Activity_index (Mus musculus [17]): 3.98; Activity (Mus musculus [18]): 30%; Activity (Mus musculus [19]): Active; Activity (Mus musculus [20]): Active
N#Cc1ccc(Cc2c3[n+](cc4c5c(ccc24)OCO5)CCc2cc4c(cc2-3)OCO4)cc1 | Active | inactive | –
Fc1ccccc1Cc1c2[n+](cc3c4c(ccc13)OCO4)CCc1cc3c(cc1-2)OCO3 | Active | inactive | –
C=C(C(=O)CCCC)c1c2c3c(ccc2c(C)c2[n+]1CCc1cc4c(cc1-2)OCO4)OCO3 | inactive | – | –
Fc1ccc(CC2=C3c4cc5c(cc4CCN3Cc3c2ccc2c3OCO2)OCO5)cc1 | Active | – | –
Fc1ccccc1CC1=C2c3cc4c(cc3CCN2Cc2c1ccc1c2OCO1)OCO4 | Active | – | –
Fc1cccc(CC2=C3c4cc5c(cc4CCN3Cc3c2ccc2c3OCO2)OCO5)c1 | Active | – | –
C=C(C(=O)CCC)c1c2c3c(ccc2c(C)c2[n+]1CCc1cc4c(cc1-2)OCO4)OCO3 | inactive | – | –
C=C(C(=O)C(C)C)c1c2c3c(ccc2c(C)c2[n+]1CCc1cc4c(cc1-2)OCO4)OCO3 | inactive | – | –
Fc1ccc(CC2=C3c4cc5c(cc4CCN3Cc3c2ccc2c3OCO2)OCO5)c(F)c1 | Active | – | –

SMILES | Activity [1] | Activity (Mus musculus [13]) | further results
C=C(C(=O)CC)c1c2c3c(ccc2c(C)c2[n+]1CCc1cc4c(cc1-2)OCO4)OCO3 | – | inactive | –
C1=C2c3cc4c(cc3CCN2Cc2c1ccc1c2OCO1)OCO4 | Active | – | fold change (FC) [2]: 2.96; Activity (Mus musculus [3]): 6.8%; Activity (Mus musculus [4]): 0.4%; Activity (Mus musculus [5]): -7%; inhibition in vivo at 200 mg/kg (Mus musculus [6]): 74%; inhibition in vivo at 100 mg/kg (Mus musculus [7]): 55.9%; inhibition in vivo at 50 mg/kg (Mus musculus [8]): 48%; Activity_index (Mus musculus [21]): 2.16; Activity_index (Mus musculus [22]): 2.86; Activity_index (Mus musculus [23]): 3.52; inhibition (Mus musculus [9]): Dose-dependent effect; Activity (Mus musculus [24]): Dose-dependent effect; Activity (Mus musculus [10]): 18.7%; Activity (Mus musculus [11]): 20.8%; Activity (Mus musculus [12]): 24.6%; Activity (Mus musculus [25]): Active; Activity (Mus musculus [26]): Active; Activity (Mus musculus [27]): inactive; Activity (Mus musculus [28]): Active; Ratio (Mus musculus [29]): <=2
Cc1ccc(CC2=C3c4cc5c(cc4CCN3Cc3c2ccc2c3OCO2)OCO5)cc1 | Active | – | –
C=C(C(=O)C1CC1)c1c2c3c(ccc2c(C)c2[n+]1CCc1cc4c(cc1-2)OCO4)OCO3 | inactive | – | –
FC(F)(F)c1cccc(Cc2c3[n+](cc4c5c(ccc24)OCO5)CCc2cc4c(cc2-3)OCO4)c1.[Cl-] | – | – | Activity [14]: Toxic
C=C(C(C)=O)c1c2c3c(ccc2c(C)c2[n+]1CCc1cc4c(cc1-2)OCO4)OCO3 | – | inactive | –
N#Cc1ccc(CC2=C3c4cc5c(cc4CCN3Cc3c2ccc2c3OCO2)OCO5)cc1 | Active | – | –
C=C(C(=O)c1ccc(CC(C)C)cc1)c1c2c3c(ccc2c(C)c2[n+]1CCc1cc4c(cc1-2)OCO4)OCO3 | inactive | – | –
N#CC1c2c(ccc3c2OCO3)C=C2c3cc4c(cc3CCN21)OCO4 (racemic) | Active | – | Activity (Mus musculus [30]): Toxic
Cc1c2[n+](cc3c4c(ccc13)OCO4)CCc1cc3c(cc1-2)OCO3 | Active | inactive | –
Fc1ccc(Cc2c3[n+](cc4c5c(ccc24)OCO5)CCc2cc4c(cc2-3)OCO4)c(F)c1 | Active | inactive | –
Fc1cccc(Cc2c3[n+](cc4c5c(ccc24)OCO5)CCc2cc4c(cc2-3)OCO4)c1 | Active | inactive | –
Fc1ccc(Cc2c3[n+](cc4c5c(ccc24)OCO5)CCc2cc4c(cc2-3)OCO4)cc1 | Active | inactive | –
CC1=C2c3cc4c(cc3CCN2Cc2c1ccc1c2OCO1)OCO4 | Active | inactive | –
O=c1c2c3c(ccc2cc2n1CCc1cc4c(cc1-2)OCO4)OCO3 | Active | inactive | –
C=C(C(=O)C(C)(C)C)c1c2c3c(ccc2c(C)c2[n+]1CCc1cc4c(cc1-2)OCO4)OCO3 | inactive | – | –
C1=CC2CC=CCN2CC1 (stereo not given) | Active | – | –
